Values quoted from earlier work in patent US20240139350A1, “RADIOACTIVELY LABELED LIGAND FOR FIBROBLAST ACTIVATION PROTEIN-ALPHA IMAGING AGENT AND PREPARATION METHOD THEREFOR” (FIVE ELEVEN PHARMA, INC, priority 2021, published 2024).

Assays:
FAP-positive tumor = settings: after 24 hours, relative to FAPI-02
[1] = coordination to Ga^3+
murine FAP = molecular target: T1, murine FAP (Mus musculus, UniProt P97321); settings: human embryonic kidney cells expressing mouse FAP
T1 construct: expressed in transfected cells; host or cells: human embryonic kidney cells
T1 sequence (P97321 1-761): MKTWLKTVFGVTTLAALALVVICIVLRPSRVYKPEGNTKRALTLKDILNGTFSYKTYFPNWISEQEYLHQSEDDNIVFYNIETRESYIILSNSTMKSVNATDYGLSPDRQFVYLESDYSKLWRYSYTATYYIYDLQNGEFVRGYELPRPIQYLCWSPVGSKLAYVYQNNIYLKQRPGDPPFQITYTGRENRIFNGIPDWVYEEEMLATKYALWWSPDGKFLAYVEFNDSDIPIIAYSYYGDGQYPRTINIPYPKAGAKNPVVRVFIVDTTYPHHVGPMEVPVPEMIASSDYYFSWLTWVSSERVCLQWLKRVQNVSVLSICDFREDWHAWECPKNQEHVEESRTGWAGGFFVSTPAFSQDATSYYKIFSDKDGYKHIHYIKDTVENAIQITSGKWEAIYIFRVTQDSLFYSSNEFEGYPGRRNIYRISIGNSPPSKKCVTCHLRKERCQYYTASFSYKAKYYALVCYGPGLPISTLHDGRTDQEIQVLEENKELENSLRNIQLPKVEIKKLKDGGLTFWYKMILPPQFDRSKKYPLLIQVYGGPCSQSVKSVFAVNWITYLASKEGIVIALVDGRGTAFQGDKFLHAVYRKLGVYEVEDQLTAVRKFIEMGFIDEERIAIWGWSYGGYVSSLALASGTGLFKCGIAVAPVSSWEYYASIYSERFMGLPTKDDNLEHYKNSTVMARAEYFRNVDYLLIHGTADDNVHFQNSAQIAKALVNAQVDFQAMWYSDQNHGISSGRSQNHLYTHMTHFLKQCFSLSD

[2] = molecular target: T2, dipeptidyl peptidase 4 (CD26) (Homo sapiens, UniProt P27487); settings: human embryonic kidney cells transfected with CD26
T2 construct: expressed in transfected cells; host or cells: human embryonic kidney cells
T2 sequence (P27487 whole entry, species assumed): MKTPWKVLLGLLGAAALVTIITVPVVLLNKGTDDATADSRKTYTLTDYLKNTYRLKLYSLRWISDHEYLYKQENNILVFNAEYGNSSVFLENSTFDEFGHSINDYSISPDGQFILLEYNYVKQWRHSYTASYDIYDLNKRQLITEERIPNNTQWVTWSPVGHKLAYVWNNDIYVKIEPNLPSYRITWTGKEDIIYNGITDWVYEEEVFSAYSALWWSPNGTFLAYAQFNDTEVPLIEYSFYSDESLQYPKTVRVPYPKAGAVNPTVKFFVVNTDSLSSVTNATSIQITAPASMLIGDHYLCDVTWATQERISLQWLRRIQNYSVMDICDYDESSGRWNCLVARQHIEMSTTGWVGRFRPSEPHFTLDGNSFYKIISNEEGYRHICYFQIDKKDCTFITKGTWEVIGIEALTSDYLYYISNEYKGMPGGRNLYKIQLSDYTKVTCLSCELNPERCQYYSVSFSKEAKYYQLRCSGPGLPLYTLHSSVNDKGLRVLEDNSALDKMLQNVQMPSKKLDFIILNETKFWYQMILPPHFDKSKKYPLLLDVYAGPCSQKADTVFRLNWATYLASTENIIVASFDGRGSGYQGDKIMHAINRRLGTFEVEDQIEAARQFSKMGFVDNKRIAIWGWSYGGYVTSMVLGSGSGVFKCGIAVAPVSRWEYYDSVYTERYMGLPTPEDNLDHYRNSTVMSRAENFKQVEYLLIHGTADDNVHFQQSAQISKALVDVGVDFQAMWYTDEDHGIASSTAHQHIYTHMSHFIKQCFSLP

| Compound | thermodynamically stable constant log KML [1] | binding to murine FAP (murine FAP) | other results |
| --- | --- | --- | --- |
| N#C[C@@H]1CC(F)(F)CN1C(=O)CNC(=O)c1ccnc2ccc(OCCCN3CCN(C(=O)CN4CCN(CC(=O)O)CCN(CC(=O)O)CCN(CC(=O)O)CC4)CC3)cc12 (177Lu complex, metal not drawn) [FAPI-04] |  |  | effective tumor uptake higher than FAPI-02 (FAP-positive tumor): 100% |
| CC1(N(CC(=O)O)CC(=O)O)CN(CC(=O)O)CCN(CC(=O)O)C1 [AAZTA] | 22.18 |  |  |
| O=C(O)CN1CCN(CC(=O)O)CCN(CC(=O)O)CCN(CC(=O)O)CC1 [DOTA] | 21.3 |  |  |
| N#C[C@@H]1CCCN1C(=O)CNC(=O)c1ccnc2ccc(OCCCN3CCN(C(=O)CN4CCN(CC(=O)O)CCN(CC(=O)O)CCN(CC(=O)O)CC4)CC3)cc12 [FAPI-02] |  | strong binding |  |
| N#C[C@@H]1CC(F)(F)CN1C(=O)CNC(=O)c1ccnc2ccc(OCCCN3CCN(C(=O)CN4CCN(CC(=O)O)CCN(CC(=O)O)CCN(CC(=O)O)CC4)CC3)cc12 [FAPI-04] |  | strong binding | binding to CD26 [2]: did not bind |
| O=C(O)CN1CCN(CC(=O)O)CCN(CC(=O)O)CC1 [NOTA] | 31.0 |  |  |
